Assays:
[1] = test system: BV-2 murine microglial cells; test: NO production (Griess assay) in LPS-activated BV-2 cells; format: cell-based; settings: then 100 ng/mL LPS for 24 h
Method: To determine the effects of 13 on LPS-induced inflammatory mediators, we initially evaluated the production of NO. BV-2 cells were treated with different concentrations of 13, then, were exposed to 100 ng/mL LPS for 24 h, and the release of NO in the culture medium was measured by Griess assay (Figure 4B).
Cell Cultures and Treatments: BV-2 murine microglial cells (a gift from Prof. Elisabetta Blasi of the University of Modena and Reggio Emilia, Modena, Italy) were maintained at 37 °C and 5% CO2 in a humidified incubator and grown in DMEM supplemented with 10% (v/v) low-endotoxin fetal bovine serum (Euroclone—Milan, Italy), 2 mM L-glutamine, 50 U/mL penicillin, and 50 μg/mL streptomycin (Sigma-Aldrich–Merck, Milan, Italy). […]
Measurement of NO Production: The amount of nitrite accumulation in the culture medium of BV-2 cells was measured using Griess reagent. […] The NO concentration was evaluated by measuring the absorbance at 540 nm with a 96-well microplate spectrophotometer (VICTOR3 V Multilabel Counter; PerkinElmer). Concentration of nitrites released in the medium was determined from the standard curve generated with known concentrations of sodium nitrite. Results are expressed as mean concentration of nitrites (μM) ± SEM, from three different samples.

[2] = biological target: T1, human recombinant A3AR (Homo sapiens, UniProt P0DMS8); test: Radioligand binding at human A3AR ([3H]HEMADO displacement, CHO cell membranes); settings: displacement of [3H]HEMADO, n = 3–5, means ± standard errors
T1 construct: expressed in transfected cells; membrane preparation
T1 sequence (P0DMS8 1-318): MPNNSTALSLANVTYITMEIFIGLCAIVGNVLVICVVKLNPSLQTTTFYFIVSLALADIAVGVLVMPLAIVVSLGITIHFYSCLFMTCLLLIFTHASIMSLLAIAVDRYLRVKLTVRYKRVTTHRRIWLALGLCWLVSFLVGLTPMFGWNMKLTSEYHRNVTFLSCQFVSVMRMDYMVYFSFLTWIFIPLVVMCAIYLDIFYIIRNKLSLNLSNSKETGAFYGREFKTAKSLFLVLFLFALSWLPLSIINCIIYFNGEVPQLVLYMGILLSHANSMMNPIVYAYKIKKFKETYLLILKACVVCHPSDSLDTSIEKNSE
Method: The affinities of the newly synthesized compounds 7–13 and 17–21 were determined in binding studies at human recombinant A1, A2A, and A3 ARs, stably transfected in Chinese hamster ovary (CHO) cells, using [^3H]CCPA (2-chloro-N^6-cyclopentylAdo), [^3H]NECA (5′-N-ethylcarboxamidoAdo), and [^3H]HEMADO (2-hexynyl-N^6-methylAdo) as respective radioligands. Most of the compounds were also evaluated at A2BARs in a functional study using the GloSensor cAMP assay. The results are reported in Table 1 as Ki values in nM (± standard errors). In the case of A2BARs, Ki-values were calculated from IC50-values determined by the inhibition of NECA-stimulated adenylyl cyclase activity.
Cell culture: The Chinese hamster ovary cells (CHO) stably transfected with the desired ARs were grown in DMEM/F12 medium containing 10% FBS (fetal bovine serum), 100 U/mL penicillin, 100 µg/mL streptomycin, 2.5 μg/mL amphotericin B, 1 mM sodium pyruvate, 0.1 mg/mL genetecina (G418), and incubated at 37 °C in a gaseous mixture of 5% CO2: […].
Preparation of membranes: Cell membranes for binding assays were prepared mechanically detaching the cells from the petri and suspending them in a cold hypotonic buffer (5 mM Tris/HCl, 2 mM EDTA, pH 7.4). The cell suspension was homogenized (Ultra-Turrax, 2 × 15 s at maximum speed) and the homogenate centrifuged for 10 min (4 °C) to 1000× g. The supernatant was subsequently centrifuged for 30 min (4 °C) at 100,000× g and the pellet containing the membrane proteins was re-suspended in a specific buffer for each receptor subtype (A1: 50 mM Tris/HCl, pH 7.4; A2A: 50 mM Tris/HCl, 10 mM MgCl2, pH 7.4; A3: 50 mM Tris/HCl, 10 mM MgCl2, 1 mM EDTA, pH 8.25). The amount of the protein suspension was determined according to the […] using the BCA Protein Assay Kit (Pierce), frozen in liquid nitrogen, and stored at −80 °C.
Binding assays: The dissociation constants of the radioligand (KD) were calculated through saturation assays, while the dissociation constants of the compounds under study (Ki) were determined by competition experiments. All binding data were calculated by nonlinear regression curves using the software GraphPad Prism 5 (GraphPad Software, San Diego, CA, USA). The increasing concentrations of the radioligand saturation binding ([^3H]-CCPA for the A1 receptor subtype, [^3H]-NECA for the A2A receptor subtype, and [^3H]-HEMADO for the A3 receptor) subtype were incubated in a total volume of 250 μL containing 0.2 U/mL of Ado deaminase (ADA) and 12 micrograms of membrane proteins in the specific buffer. In competition experiments for the A1 receptor subtype, each compound was added at increasing concentrations, to the well containing 1 nM of [^3H]-CCPA, to a final volume of 200 μL. The samples were left to incubate for 3 h at room temperature, filtered in a filter 96-well plate (UniFilter GF/C, Perkin-Elmer Life and Analytical Science, Boston, MA) using the FilterMate Cell Harvester (Perkin-Elmer), and washed 3 times with cold distilled water. After drying the filter plate at 40 °C for 30′, they 20 μL of scintillating liquid (Microscint-20, Perkin-Elmer) was added to each well, and then the radioactivity was quantized with the MicroBeta2 Plate Counter (Perkin-Elmer). The conditions for binding experiments at A2A and A3 receptor subtypes were essentially the same as for the A1AR using [^3H]-NECA (N-ethylcarboxyamideAdo) at a concentration of 10 nM and [^3H]-HEMADO (2-(1-hexyne)-N^6-methylAdo) at a concentration of 1 nM as radioligands, respectively. The samples were incubated with 12 micrograms of protein for 3 h at room temperature and filtered as described above.
The non-specific binding was determined in the presence of 1 mM theophylline for the A1AR, or 100 µM R-PIA (N^6-(1-methyl-2-phenylethyl)Ado) for the A2A and A3 receptors.

CCn1c(-c2ccco2)nc2c(N)nc(NCCc3ccc(O)cc3)nc21 [compound 13, 4-(2-((6-Amino-9-ethyl-8-(furan-2-yl)-9H-purin-2-yl)amino)ethyl)phenol]
NO level in culture medium vs LPS treated cells ([1]; 1 nM compound): significantly reduced the NO level
NO level in culture medium vs LPS treated cells ([1]; 10 nM compound): significantly reduced the NO level
Ki [2]: 12 nM

Source: article PMC9032385, “A2A Adenosine Receptor Antagonists: Are Triazolotriazine and Purine Scaffolds Interchangeable?” (Molecules, 2022)
